Measurements published in paper PMC11396746, “Stability Evaluation and Pharmacokinetic Profiling of Vepdegestrant in Rodents Using Liquid Chromatography–Tandem Mass Spectrometry” (Molecules, 2024).

Key:
[1] = Plasma protein binding (PPB) using a rapid equilibrium dialysis device; format: in vitro ADME
Experimental: Low plasma stability was predicted based on pH stability results. […] In addition, we evaluated the plasma protein binding (PPB) of vepdegestrant using a rapid equilibrium dialysis device. However, the concentration of vepdegestrant in the buffer was below the quantification limit, making it impossible to determine an accurate binding ratio. This phenomenon persisted even when the administered concentration was increased from 2 to 10 µg/mL or when the plasma was diluted up to 100-fold. […] Furthermore, the recovery of vepdegestrant in the plasma after a 4-h incubation was greater than 85%. The unrecovered fraction may result from nonspecific binding to the device and membrane. Further studies should be conducted using alternative methods.

[2] = Metabolic stability in mouse liver microsomes; format: in vitro ADME; details: 60 min, 1 μM, with NADPH
Experimental: The metabolic stability of vepdegestrant was evaluated using liver microsomes obtained from mice, rats, dogs, and humans. Vepdegestrant was dissolved in DMSO to prepare a stock solution with a concentration of 0.1 mM. Microsomes (25 µL) were spiked into PBS (440 µL) and pre-incubated for 5 min. After pre-incubation, vepdegestrant stock solution (5 µL) was added, followed by an NADPH regenerating system (27 µL) to initiate the reaction. The composition of the reaction mixture was as follows: Vepdegestrant (final concentration 1 µM), mouse, rat, dog, human liver microsomes (protein concentration: 1 mg/mL), NADPH regenerating system (final concentrations: 1.3 mM NADP^+, 3.3 mM glucose-6-phosphate, 0.4 U/mL glucose-6-phosphate dehydrogenase, and 3.3 mM magnesium chloride), and PBS (pH 7.4). At 5, 15, 30, and 60 min after starting the reaction, aliquots (50 µL) were taken and added to ice-cold ACN with an IS (200 µL) to terminate the reaction. For the zero-time samples, aliquots were taken before adding NADPH. Subsequently, the mixture was vigorously mixed for 10 min and centrifuged at 17,054 g under 25 °C for 10 min. For analysis, 5 µL of the supernatant was injected into the HPLC-MS/MS system. In addition, the stability of vepdegestrant in rat liver microsomes was assessed in the absence of NADPH or NADPH and microsomes (PBS only). […]

In the case of O=C1CC[C@H](N2Cc3cc(N4CCN(CC5CCN(c6ccc([C@@H]7c8ccc(O)cc8CC[C@@H]7c7ccccc7)cc6)CC5)CC4)ccc3C2=O)C(=O)N1 [vepdegestrant, Vepdegestrant], the recovery at 4 h ([1]; plasma in a rapid equilibrium dialysis device, after 4-h incubation in rapid equilibrium dialysis device, read-out: recovery of vepdegestrant in the plasma) was > 85%, the fraction unbound at 4 h ([1]; plasma, calculated assuming buffer concentration at the lowest quantifiable limit, actual PPB likely higher) was 0.001 and the “remaining percentage of unconverted vepdegestrant” value [2] was 106%.
